Experimental data as given in PMC9568670, “A dominant negative mitofusin causes mitochondrial perinuclear clusters because of aberrant tethering” (Life Science Alliance, 2022).
Numbering of substitutions follows the chain as printed. Structures can show the parent of a compound that is named as a salt.

Tests used:
Assay type in all cases: biochemical
[1] = molecular target: T1, Mfn1^WT-FLAG (full-length) (Mus musculus, UniProt Q811U4); experiment: blue native PAGE of isolated mitochondria, nucleotide-dependent oligomerization; details: 2 mM GMP-PNP, 37 C, 30 min; non-hydrolyzable GTP analog; indirect read-out by oligomer shift
T1 construct: full-length Mfn1 with FLAG tag, TET-induced in Flp-In TREx HEK293 cells; isolated mitochondria; ~200 kD species consistent with cis dimer
T1 sequence (Q811U4 1-741): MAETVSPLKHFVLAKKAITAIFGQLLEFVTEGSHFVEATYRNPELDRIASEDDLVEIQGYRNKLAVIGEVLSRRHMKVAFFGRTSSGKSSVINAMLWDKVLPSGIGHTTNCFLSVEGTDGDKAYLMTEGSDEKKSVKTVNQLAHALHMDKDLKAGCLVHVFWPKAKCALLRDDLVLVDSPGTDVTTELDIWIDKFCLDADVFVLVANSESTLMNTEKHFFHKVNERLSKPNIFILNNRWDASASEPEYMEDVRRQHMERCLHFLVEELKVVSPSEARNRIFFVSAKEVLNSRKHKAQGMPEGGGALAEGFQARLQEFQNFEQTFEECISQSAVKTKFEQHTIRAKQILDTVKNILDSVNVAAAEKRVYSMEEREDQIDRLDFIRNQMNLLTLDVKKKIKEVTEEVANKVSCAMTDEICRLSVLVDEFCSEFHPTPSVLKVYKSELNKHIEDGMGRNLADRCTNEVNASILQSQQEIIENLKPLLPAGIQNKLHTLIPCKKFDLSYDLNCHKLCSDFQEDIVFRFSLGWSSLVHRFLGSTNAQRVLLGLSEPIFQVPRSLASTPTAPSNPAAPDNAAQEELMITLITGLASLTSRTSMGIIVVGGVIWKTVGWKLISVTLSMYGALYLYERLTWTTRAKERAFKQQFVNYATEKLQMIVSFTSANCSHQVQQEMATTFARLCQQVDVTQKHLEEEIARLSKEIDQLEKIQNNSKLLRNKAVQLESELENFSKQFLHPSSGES

[2] = molecular target: T2, Mfn1IM (mini-mitofusin Mfn1) (Homo sapiens, UniProt Q8IWA4, DEL366-695); experiment: malachite green phosphate release, allosteric sigmoidal fit; details: 2.5 uM protein; pH 7.4, 50 mM KCl, 5 mM MgCl2, 1 mM DTT, 37 C, 15 min
T2 construct: pET28, E. coli Rosetta(DE3); N-terminal His6 cut off with PreScission; ~50 kD; monomer with GDP, dimer with GDP-BeF3-
T2 sequence (Q8IWA4 1-365): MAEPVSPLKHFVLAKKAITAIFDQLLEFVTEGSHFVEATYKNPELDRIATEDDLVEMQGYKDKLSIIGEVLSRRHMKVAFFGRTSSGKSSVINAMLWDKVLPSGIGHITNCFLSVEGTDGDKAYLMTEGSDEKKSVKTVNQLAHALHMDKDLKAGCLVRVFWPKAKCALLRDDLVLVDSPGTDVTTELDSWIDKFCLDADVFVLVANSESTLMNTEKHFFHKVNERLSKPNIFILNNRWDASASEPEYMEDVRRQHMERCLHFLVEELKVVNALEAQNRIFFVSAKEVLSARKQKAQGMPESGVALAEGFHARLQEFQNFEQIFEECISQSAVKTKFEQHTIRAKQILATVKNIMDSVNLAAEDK
T2 sequence (Q8IWA4 696-741): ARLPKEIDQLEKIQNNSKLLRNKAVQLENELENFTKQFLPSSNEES

[3] = molecular target: T3, Mfn1IM (mini-mitofusin Mfn1) (Homo sapiens, UniProt Q8IWA4, S329P/DEL366-695); experiment: as above; details: 2.5 uM protein; pH 7.4, 50 mM KCl, 5 mM MgCl2, 1 mM DTT, 37 C, 15 min
T3 construct: pET28, E. coli Rosetta(DE3); N-terminal His6 cut off with PreScission; ~50 kD; monomer with GDP, dimer with GDP-BeF3-
T3 sequence (Q8IWA4 1-365 S329P): T2 sequence (Q8IWA4 1-365) with S329P
T3 sequence (Q8IWA4 696-741): T2 sequence (Q8IWA4 696-741)

SMILES | blue native PAGE of isolated mitochondria, nucleotide-dependent oligomerization [1] | Khalf [2] | Khalf [3]
Nc1nc2c(ncn2[C@@H]2O[C@H](COP(=O)(O)OP(=O)(O)NP(=O)(O)O)[C@@H](O)[C@H]2O)c(=O)[nH]1 [GMP-PNP, guanosine 5′-β,γ-imidotriphosphate trisodium salt hydrate] | GMP-PNP, which shifts mitofusin from the dimer into two larger species | – | –
Nc1nc2c(ncn2[C@@H]2O[C@H](COP(=O)(O)OP(=O)(O)OP(=O)(O)O)[C@@H](O)[C@H]2O)c(=O)[nH]1 [GTP] | – | kinetics of GTP hydrolysis was similar between Mfn1IM^WT and Mfn1IM^S329P | kinetics of GTP hydrolysis was similar between Mfn1IM^WT and Mfn1IM^S329P
